Columns and labels:
[1] = biological target: T1, aldehyde dehydrogenase 2 (ALDH2) (Homo sapiens, UniProt P05091); assay: Effects of compounds on the acetaldehyde oxidation rate by ALDH2 (PicoProbe Aldehyde dehydrogenase Activity Assay Kit); format: biochemical; settings: read-out: acetaldehyde oxidation rate (rate in the absence of the compounds = 100); for activity at 1 µM: compound concentration 1 μM; for activity at 10 µM: compound concentration 10 μM
T1 construct: purchased ATGen Inc
T1 sequence (P05091 18-517): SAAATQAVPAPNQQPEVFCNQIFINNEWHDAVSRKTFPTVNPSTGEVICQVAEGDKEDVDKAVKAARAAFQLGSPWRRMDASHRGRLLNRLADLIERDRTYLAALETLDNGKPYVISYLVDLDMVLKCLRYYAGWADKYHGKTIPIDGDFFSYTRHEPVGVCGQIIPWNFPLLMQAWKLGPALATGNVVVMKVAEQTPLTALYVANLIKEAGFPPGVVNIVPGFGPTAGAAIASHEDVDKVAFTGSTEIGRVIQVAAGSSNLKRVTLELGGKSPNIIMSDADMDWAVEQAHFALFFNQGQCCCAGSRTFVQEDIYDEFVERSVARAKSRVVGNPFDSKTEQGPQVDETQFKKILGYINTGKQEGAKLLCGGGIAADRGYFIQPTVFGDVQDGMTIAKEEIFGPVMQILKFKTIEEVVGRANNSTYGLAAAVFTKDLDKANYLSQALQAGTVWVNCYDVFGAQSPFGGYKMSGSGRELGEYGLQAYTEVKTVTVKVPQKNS
Method: (Effects of Compounds on the Acetaldehyde Oxidation Rate by Aldehyde Dehydrogenase 2 (ALDH2))
Effects of compounds on the acetaldehyde oxidation rate by aldehyde dehydrogenase 2 (ALDH2) were evaluated using a method known in the art. Specifically, the test was performed using a commercially available kit, PicoProbe™ Aldehyde dehydrogenase Activity Assay Kit (from BioVision Inc.) in accordance with the product's instruction. Reagents as described below were sequentially added to each well in a 384-well plate with a pipette.
1. 10 μL of the commercially available ALDH2 enzyme (from ATGen Inc.) dissolved in ALDH assay Buffer so as to obtain a concentration of 1 μg/mL.
2. 10 μL, of 30 μM or 3 μM compound solution (containing 3% DMSO) prepared with ALDH assay Buffer
3. […] of Reaction mix consisting of 7.82 μL of ALDH assay Buffer, 0.55 μL of PicoProbe, 0.27 μL of Substrate Mix, and 1.36 μL of Acetaldehyde
Before addition of 3, the plate was incubated at room temperature for 5 minutes. After addition of 3, fluorescence was determined using EnVision 2101 Multilabel Reader (from PerkinElmer Inc.) at room, temperature over 60 minutes. The measurements were taken at interval of 2 minutes.
Fluorescence was detected at an excitation wavelength of 535 nm and an emission wavelength of587 nm.
Table 1 lists the oxidation rates when the compounds are added, in which the rates are calculated on the basis of the assumption that the acetaldehyde oxidation rates in the absence of the compounds are 100. The rate for Comparative Example 1 compound was normalized to a value of “175” for 10 μM of the compound concentration while the rate for Comparative Example 1 compound was normalized to a value of “137” for 1 μM of the compound concentration.

[2] = Method: (Comparison of Amounts of Produced Reactive Metabolites)
Ability of compounds to produce reactive metabolites was evaluated, using the method as described below. Cytochrome P450 (CYP) dependent metabolism was initiated, by adding 1 mg/mL human liver microsome, 0.2 mmol/L compound, and 0.1 mmol/L RI-labeled capture agent, and lastly 1 mmol/L NADPH to 100 mM phosphate buffer (pH 7.4). After incubation at 37° C. for 60 minutes, the reaction mixture (0.1 mL) and an equal volume of acetonitrile were added to stop the metabolic reaction. After 0.8 mL of water was added to the supernatant from centrifugation, 0.5 mL of the resulting solution was injected into HPLC connected to a radio detector and a covalent complex between the reactive metabolite and Relabeled capture agent was quantitatively analyzed for its RI intensity.

[3] = tested on: mechanical allodynia induced by carrageenan in C57 BL/6J mice; assay: Suppressive effect of pain induced by carrageenan (von Frey withdrawal score); format: in vivo, mouse; settings: mean ± S.E.
Method: (Suppressive Effect of Pain Induced by Carrageenan)
This experiment was earned out with reference to Science Translational Medicine 6, 251 r118 (2014). Male C57 BL/6J mice (Charles River Japan) of 7-week-old were used. Carrageenan was subcutaneously administered to the mouse by intraplantar injection of the left hind paw to induce mechanical allodynia in the footpad. Mechanical stimulus-evoked withdrawal response at 180 min after the induction was assessed by applying a von Frey filament (ascending bending force 0.16 g) to the footpad, of the hind paw. The filament was perpendicularly applied to the footpad so that the filament was bent for 6 second. The withdrawal response was scored in three stages (0: no response or startle response (moving paw without lifting); 1: lifting of paw; 2: licking or shaking of paw). The mouse was stimulated ten times and the sum of the scores of the ten stimulation (withdrawal score) was calculated.
The compound of Example 1 was dissolved in DMSO/5% glucose solution for injection (1:1 by volume ratio). […]
Wilcoxon rank sum test was used to compare the vehicle-treated group and the Example 1-treated group. The significance level was calculated as 5%, divided into less than 5% (p<0.05) and less than 1% (p<0.01). […]

O=C(NCc1ccc2c(c1)OCO2)c1c(Cl)cccc1Cl [Comparative Example 1, N-[(2H-1,3-Benzodioxol-5-yl)methyl]-2,6-dichlorobenzamide, reference compound]
activity at 1 µM [1]: 137%
activity at 10 µM [1]: 175%
amount of reactive metabolites produced, in words [2]: produces reactive metabolites as much as clozapine

O=C(NCc1ccc2c(c1)OCCO2)c1c(Cl)cccc1Cl [Comparative Example 2, 2,6-dichloro-N-[(2,3-dihydro-1,4-benzodioxin-6-yl)methyl]benzamide, reference compound]
activity at 1 µM [1]: 125%
activity at 10 µM [1]: 164%

COCc1ccc(CNC(=O)c2c(Cl)cccc2Cl)cc1F [Example 1, 2,6-Dichloro-N-{[3-fluoro-4-(methoxymethyl)phenyl]methyl}benzamide]
activity at 1 µM [1]: 138%
activity at 10 µM [1]: 179%
Total pain-related score (withdrawal score) ([3]; 180 min after carrageenan induction, 12 mg/kg s.c. three times, **p < 0.01 vs vehicle): 6.8 ± 1.0**
Total pain-related score (withdrawal score) ([3]; Pre: before carrageenan induction): 1.6 ± 0.2

COCc1cc(F)c(CNC(=O)c2c(Cl)cccc2Cl)cc1F [Example 2, 2,6-Dichloro-N-{[3,6-difluoro-4-(methoxymethyl)phenyl]methyl}benzamide]
activity at 1 µM [1]: 125%
activity at 10 µM [1]: 168%

COCc1ccc(CNC(=O)c2c(Cl)cccc2Cl)cc1 [Example 3, 2,6-Dichloro-N-[4-(methoxymethyl)benzyl]benzamide]
activity at 1 µM [1]: 117%
activity at 10 µM [1]: 156%

COCc1ccc(CNC(=O)c2c(Cl)cccc2Cl)cc1C [Example 4, 2,6-Dichloro-N-{[4-(methoxymethyl)-3-methylphenyl]methyl}benzamide]
activity at 1 µM [1]: 136%
activity at 10 µM [1]: 175%

COCc1ccc(CNC(=O)c2c(Cl)cccc2Br)cc1F [Example 5, 2-Bromo-6-chloro-N-{[3-fluoro-4-(methoxymethyl)phenyl]methyl}benzamide]
activity at 1 µM [1]: 129%
activity at 10 µM [1]: 168%

COCc1ccc(CNC(=O)c2ccccc2Cl)cc1F [Example 6, 2-Chloro-N-{[3-fluoro-4-(methoxymethyl)phenyl]methyl}benzamide]
activity at 1 µM [1]: 108%
activity at 10 µM [1]: 148%

COCc1ccc(CNC(=O)c2ccccc2Br)cc1F [Example 7, 2-Bromo-N-{[3-fluoro-4-(methoxymethyl)phenyl]methyl}benzamide]
activity at 1 µM [1]: 119%
activity at 10 µM [1]: 156%

COCc1ccc(CNC(=O)c2c(F)cccc2Br)cc1F [Example 8, 2-Bromo-6-fluoro-N-{[3-fluoro-4-(methoxymethyl)phenyl]methyl}benzamide]
activity at 1 µM [1]: 128%
activity at 10 µM [1]: 165%

COCc1ccc(CNC(=O)c2c(F)cccc2Cl)cc1F [Example 10, 2-Chloro-6-fluoro-N-{[3-fluoro-4-(methoxymethyl)phenyl]methyl}benzamide]
activity at 1 µM [1]: 125%
activity at 10 µM [1]: 168%

COCc1ccc(CNC(=O)c2c(C)cccc2C)cc1F [Example 11, N-{[3-Fluoro-4-(methoxymethyl)phenyl]methyl}-2,6-dimethylbenzamide]
activity at 1 µM [1]: 117%
activity at 10 µM [1]: 156%

COCc1ccc(CNC(=O)c2c(Cl)cccc2C(C)C)cc1F [Example 12, 2-Chloro-N-[3-fluoro-4-(methoxymethyl)benzyl]-6-isopropylbenzamide]
activity at 1 µM [1]: 136%
activity at 10 µM [1]: 175%

COCc1ccc(CNC(=O)c2c(F)cccc2F)cc1F [Example 13, 2,6-Difluoro-N-{[3-fluoro-4-(methoxymethyl)phenyl]methyl}benzamide]
activity at 1 µM [1]: 114%
activity at 10 µM [1]: 143%

Reference: US10406126B2, “ALDH2 activator” (Eisai R&D Management Co., Ltd., priority 2018, dated 2019)
